In paper PMC3855340, “Functional Expression of Human NKCC1 from a Synthetic Cassette-Based cDNA: Introduction of Extracellular Epitope Tags and Removal of Cysteines” (PLoS ONE, 2013):

Biological target: T1, hNKCC1 (NT17, 3xFlag-YFP-tagged human NKCC1) (Homo sapiens, UniProt P55011)
T1 construct: gene SLC12A2; full-length human NKCC1 from synthetic cDNA with 262 silent mutations; N-terminal 3xFlag and YFP (mVenus) tags kept; pcDNA3.1-neo, stably expressed in HEK-293 cells
T1 sequence (P55011 1-1212): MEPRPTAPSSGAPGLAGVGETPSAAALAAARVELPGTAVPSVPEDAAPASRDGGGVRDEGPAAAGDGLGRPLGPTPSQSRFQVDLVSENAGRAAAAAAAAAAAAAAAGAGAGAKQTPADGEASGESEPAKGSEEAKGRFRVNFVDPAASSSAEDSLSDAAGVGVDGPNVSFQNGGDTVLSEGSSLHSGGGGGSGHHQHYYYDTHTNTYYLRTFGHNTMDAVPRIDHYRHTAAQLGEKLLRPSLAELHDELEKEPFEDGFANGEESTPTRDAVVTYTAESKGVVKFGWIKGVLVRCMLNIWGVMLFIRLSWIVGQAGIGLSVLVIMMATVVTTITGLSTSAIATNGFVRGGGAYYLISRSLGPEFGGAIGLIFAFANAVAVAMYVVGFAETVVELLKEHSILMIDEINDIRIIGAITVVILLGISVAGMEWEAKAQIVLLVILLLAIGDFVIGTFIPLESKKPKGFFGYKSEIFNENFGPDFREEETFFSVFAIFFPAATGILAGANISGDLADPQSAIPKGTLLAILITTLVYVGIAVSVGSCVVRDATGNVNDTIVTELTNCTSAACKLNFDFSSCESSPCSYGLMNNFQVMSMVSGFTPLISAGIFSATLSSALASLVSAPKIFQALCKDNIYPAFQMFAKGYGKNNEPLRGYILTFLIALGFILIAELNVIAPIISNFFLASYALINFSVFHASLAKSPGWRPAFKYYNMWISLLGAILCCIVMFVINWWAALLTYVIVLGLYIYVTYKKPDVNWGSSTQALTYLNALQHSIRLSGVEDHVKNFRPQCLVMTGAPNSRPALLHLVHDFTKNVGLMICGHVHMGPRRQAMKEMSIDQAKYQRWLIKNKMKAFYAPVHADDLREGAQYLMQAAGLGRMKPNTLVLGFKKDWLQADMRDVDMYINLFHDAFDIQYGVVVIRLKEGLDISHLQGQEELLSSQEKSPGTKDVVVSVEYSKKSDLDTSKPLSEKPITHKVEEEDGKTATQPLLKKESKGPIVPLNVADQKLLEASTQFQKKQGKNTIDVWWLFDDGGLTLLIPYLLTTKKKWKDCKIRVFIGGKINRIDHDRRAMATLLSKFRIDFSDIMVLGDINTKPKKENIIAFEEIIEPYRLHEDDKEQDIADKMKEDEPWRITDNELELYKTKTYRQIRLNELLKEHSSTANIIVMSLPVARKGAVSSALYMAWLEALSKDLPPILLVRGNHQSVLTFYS
Assay: influx inhibition in transfected HEK-293 cells, single-site fit
Format: cell-based
Conditions: read-out: Ki (bumet)

Ki: 460 ± 100 nM
SMILES: CCCCNc1cc(C(=O)O)cc(S(N)(=O)=O)c1Oc1ccccc1 [bumetanide]
